Reference: PMC12631912, “A Multifunctional Molecular Probe for Multimodal Imaging‐Guided Potent Photothermal/Photodynamic Therapy of Endometriosis” (Advanced Science, 2025)

What was measured:
[1] = T1 relaxivity (r1) of probe solutions by MRI; type: physicochemical; details: in PBS, 3.0 T MRI scanner, room temperature; slope of 1/T1 versus Gd concentration; n = 3 regions of interest
Protocol: An inversion recovery spin echo sequence was executed with the parameters: repetition time (TR) = 5.27 ms, echo time (TE) = 2.29 ms, field of view (FOV) = 160 mm × 160 mm, acquisition matrix = 336 × 336, acquisition voxel = 0.48 mm × 0.48 mm × 2 mm, slice thickness = 2 mm, reconstruction matrix = 672 × 672, reconstruction voxel = 0.24 mm × 0.24 mm × 2 mm, number of flip angles = 4 (3°, 6°, 9°, 13°), and NSA = 1. Regions of interest (ROI, average size 10 mm^2) were analyzed to acquire the T1 relaxation times. The r 1 was then calculated based on the slope of the linear plot between 1/T1 and Gd concentration, determined through linear least‐squares regression analysis.

EMS lesions = assay: In vivo infrared thermography of EMS lesions; design: species or system BALB/c nude mice; details: EMS nude mice, ICG 500 µg kg^−1 i.v., 1 h post-injection, 808 nm laser 1.0 W cm^−2, within 5 min; n = 3
Protocol: As shown in previous references,^[ [19] ^] to establish a xenograft EMS model in nude mice, female BALB/c nude mice (5‐6 weeks, 18‐20 g) served as recipients, and female Sprague–Dawley rats (7‐9 weeks, 200–240 g) with regular 4–5 days estrous cycles were selected as donors after a week of acclimatization. Prior to surgery, nude mice received daily intramuscular β‐estradiol 17‐pentanoate (0.25 µg g^−1) for 3 days. The EMS model was induced by subcutaneous transplantation of ≈40 mg of rat uterine fragments into nude mice. The uterine horns from euthanized donors were sterilely collected, bisected, minced, and suspended in DMEM/F12 medium before injection. Nude mice then received β‐estradiol 17‐pentanoate (0.25 µg g^−1) injections every 2 days, and endometriotic lesions reaching 100 mm^3 were used for subsequent experiments.
To investigate the photothermal heating efficacy at lesion sites in EMS mice, in vivo infrared thermography studies were conducted. […] Thermal responses were monitored in real‐time using a digital thermographic camera (Fluke Ti27, IR Fusion Technology, USA). Infrared thermal images were captured, and temperature measurements were recorded. The temporal correlation between temperature elevation and laser irradiation duration was analyzed using AnalyzIR software (4.0.0).

Ishikawa cells [2] = assay: Cellular internalization of probes by flow cytometry; type: cell-based; details: in Figure 3g
Protocol: (§1) Furthermore, the cellular internalization of the probes was quantitatively evaluated using flow cytometry. […] After these incubation periods, the cells were washed three times with PBS, trypsinized, and collected. The harvested cells were then analyzed using an Attune NxT flow cytometer (Invitrogen, USA). The data obtained was analyzed utilizing NovoExpress 1.4.0 software (Agilent, USA).

EESCs [3] = assay: Intracellular ROS generation, DCFH-DA, flow cytometry; type: cell-based, human; details: C ICG = 20 µg mL^−1, 4 h, + laser (808 nm, 1.0 W cm^−2, 5 min)
Protocol: (§2) DCFH‐DA was utilized to evaluate the intracellular ROS production induced by molecular probes under laser irradiation. Specifically, the cells (1 × 10^4 per well) were seeded onto confocal dishes and incubated overnight at 37 °C. […] Following this, the cells were carefully rinsed three times with fresh PBS. Subsequently, the cells were irradiated with an 808 nm laser (1.0 W cm^− ^2, 5 min). Intracellular ROS levels were then visualized and analyzed using a CLSM.
(§3) Additionally, a quantitative assessment of intracellular ROS production was performed using flow cytometry under the same conditions as the above experimental conditions. […] The cells were then trypsinized and harvested. After exposure to an 808 nm laser (1.0 W cm^− ^2, 5 min), the collected cells were analyzed on an Attune NxT flow cytometer (Invitrogen, USA). The resulting data was analyzed with NovoExpress 1.4.0 software (Agilent, USA).

EESCs [4] = assay: Cellular internalization of probes by flow cytometry; type: cell-based, human; details: EESC, in Figure 3g
Protocol: as §1

Ishikawa cells [5] = assay: Intracellular ROS generation, DCFH-DA, flow cytometry; type: cell-based; details: C ICG = 20 µg mL^−1, 4 h, + laser (808 nm, 1.0 W cm^−2, 5 min)
Protocol: as §2, §3

[6] = In vivo fluorescence imaging, off-target effects and clearance in healthy mice; design: species or system BALB/c nude mice
EESCs [7] = assay: CCK-8 cytotoxicity without laser irradiation; type: cell-based, human; details: CCK-8, 24 h incubation, ICG concentration up to 300 µg mL^−1
Protocol: (§4) After 24 h, the medium was replaced with fresh medium containing 10% CCK‐8 reagent and incubated for an additional 2 h. The absorbance at 450 nm was measured using a Synergy 2 multimode microplate reader (BioTek, USA), with the wells without cells serving as blanks. All experiments were performed in triplicate.

Ishikawa cells [8] = assay: CCK-8 cytotoxicity without laser irradiation; type: cell-based; details: CCK-8, 24 h incubation, ICG concentration up to 300 µg mL^−1
Protocol: as §4

[9] = UV absorption and fluorescence emission spectra; type: physicochemical; details: in PBS, cRGD-ILD C ICG = 10 µg mL^−1, ICG 5 µg/mL
Protocol: The ^1H NMR spectra were conducted utilizing a Varian Unity 400 MHz Spectrometer ([…]) in a variety of deuterated solvents. ESI‐MS were obtained with a Thermo Scientific LTQ XL mass spectrometer (Thermo, USA). UV absorption spectra were measured by a Unico UV‐2000 UV–vis Spectrophotometer (Shanghai, China). Photoluminescence excitation and emission spectra were recorded using an FSP920‐combined Time Resolved and Steady State Fluorescence Spectrometer (Edinburgh, UK), equipped with a 450‐W xenon lamp. Both the UV and fluorescence spectrophotometers were scanned within the wavelength range of 650–850 nm.

[10] = C ICG = 2.5 µg mL^−1, 1 h incubation
[11] = C ICG = 2.5 µg mL^−1, 4 h incubation

For ICG‐lys‐DTPA@Gd [ILD], the “T 1 relaxivities (r 1)” value [1] was 5.37 mM⁻¹ s⁻¹, the “localized (maximum) temperature at the EMS lesion” value (EMS lesions) was 34.5 °C and the “internalized probes by flow cytometry” value (Ishikawa cells [2]; [10]) was 61.98%. The “internalized probes by flow cytometry” value (Ishikawa cells [2]; [11]) was 93.22%, the “intracellular ROS, normalized fluorescence intensity (DCFH-DA)” value (EESCs [3]) was 93.85% and the “internalized probes by flow cytometry” value (EESCs [4]; [10]) was 74.68%. For the same substance, the “internalized probes by flow cytometry” value (EESCs [4]; [11]) was 94.41% and the “intracellular ROS, normalized fluorescence intensity (DCFH-DA)” value (Ishikawa cells [5]) was 88.54%.
In the case of “c(RGDyK)‐ICG‐lys‐DTPA@Gd (head to tail) [cRGD‐ILD, targeting theranostic probe integrating cRGD peptide, ICG fragment and DTPA@Gd complex]”, the “T 1 relaxivities (r 1)” value [1] is reported as 4.85 mM⁻¹ s⁻¹, the “tissue distribution by serial in vivo fluorescence imaging” value ([6]; healthy BALB/c nude mice, ICG 1000 µg kg^−1 i.v.) is reported as “no specific tissue distribution” and the “fluorescence signal as % of the 24 h level” value ([6]; healthy BALB/c nude mice, ICG 1000 µg kg^−1 i.v., within 7 days, n = 3) is reported as “≈ 14.75%”. For the same substance, the “ex vivo fluorescence of major organs” value ([6]; healthy nude mice, 10 days post-injection, heart, liver, spleen, lungs, kidneys) was “minimal residual fluorescence”, the “cell viability without laser irradiation” value (EESCs [7]) was “above 90%” and the “cell viability without laser irradiation” value (Ishikawa cells [8]) was “above 90%”. The “intracellular ROS, normalized fluorescence intensity (DCFH-DA)” value (EESCs [3]) was 96.99%, the fluorescence emission peak ([9]; λex = 755 nm) was 764 nm and the absorption peak [9] was 755 nm. The “intracellular ROS, normalized fluorescence intensity (DCFH-DA)” value (Ishikawa cells [5]) was 94.2%.
